Reference: US5919756A, “Amides” (Eli Lilly and Company, priority 1997, dated 1999)
Values after ≈ are worked out from the molar mass of the structure shown.

Experiments:
Assay type in all cases: cell-based
[1] = system: Staphylococcus haemolyticus 415; test: Broth micro-dilution MIC, SH 415; settings: unit assumed
Method: (§1) The antibacterial efficacy of the present compounds is illustrated in TABLE 2. The minimal inhibitory concentrations (MICs) were determined using a standard broth micro-dilution assay.

[2] = system: Enterococcus, Sensitive (4-6 isolates); test: Enterococcus screen, broth micro-dilution MIC, sensitive isolates; design: unit not given here; settings: mean of 4-6 isolates
Method: as §1

[3] = system: Staphylococcus haemolyticus 105; test: Broth micro-dilution MIC, SH 105; settings: unit assumed
Method: as §1

[4] = system: Staphylococcus aureus 446; test: Broth micro-dilution MIC, SA 446; settings: unit assumed
Method: as §1

[5] = system: Staphylococcus epidermis 270; test: Broth micro-dilution MIC, SE 270; settings: unit assumed
Method: as §1

[6] = system: Streptococcus pneumoniae P1; test: Broth micro-dilution MIC, S PN P1; settings: unit assumed
Method: as §1

[7] = system: Staphylococcus aureus 489; test: Broth micro-dilution MIC, SA 489; settings: unit assumed
Method: as §1

[8] = system: Enterococcus, Resistant (4-6 isolates); test: Enterococcus screen, broth micro-dilution MIC, resistant isolates; design: unit not given here; settings: mean of 4-6 isolates
Method: as §1

[9] = system: Streptococcus pyogenes 203; test: Broth micro-dilution MIC, S PY 203; settings: unit assumed
Method: as §1

[10] = system: Staphylococcus aureus 447; test: Broth micro-dilution MIC, SA 447; settings: unit assumed
Method: as §1

Compound | Minimum Inhibitory Concentrations (MICs), Mean Values of 4-6 Isolates, Sensitive [2] | MIC, SA 446 [4] [µg/mL] | MIC, SE270 [5] [µg/mL] | MIC, S PN P1 [6] [µg/mL] | MIC, SA 489 [7] [µg/mL] | Minimum Inhibitory Concentrations (MICs), Mean Values of 4-6 Isolates, Resistant [8] | MIC, S PY 203 [9] [µg/mL] | MIC, SA 447 [10] [µg/mL] | MIC, SH415 [1] [µg/mL] | MIC, SH105 [3] [µg/mL]
CNC(CC(C)C)C(=O)NC1C(=O)NC(CC(N)=O)C(=O)NC2C(=O)NC3C(=O)NC(C(=O)NC(C(=O)NCc4ccccc4)c4cc(O)cc(O)c4-c4cc3ccc4O)C(OC3CC(C)(N)C(O)C(C)O3)c3ccc(c(Cl)c3)Oc3cc2cc(c3OC2OC(CO)C(O)C(O)C2OC2CC(C)(NCc3ccc(-c4ccccc4)cc3)C(O)C(C)O2)Oc2ccc(cc2Cl)C1O (stereo not drawn) [Example 10, N^4-(4-phenylbenzyl)A82846B, benzylamide] | 0.14 | 1 (≈ 0.541 µM) | 0.5 (≈ 0.271 µM) | ≤ 0.06 | 4 (≈ 2.16 µM) | 0.84 | ≤ 0.06 | 2 (≈ 1.08 µM) | 4 (≈ 2.16 µM) | 0.5 (≈ 0.271 µM)
CNC(CC(C)C)C(=O)NC1C(=O)NC(CC(N)=O)C(=O)NC2C(=O)NC3C(=O)NC(C(=O)NC(C(=O)NCCc4ccccc4)c4cc(O)cc(O)c4-c4cc3ccc4O)C(OC3CC(C)(N)C(O)C(C)O3)c3ccc(c(Cl)c3)Oc3cc2cc(c3OC2OC(CO)C(O)C(O)C2OC2CC(C)(NCc3ccc(-c4ccccc4)cc3)C(O)C(C)O2)Oc2ccc(cc2Cl)C1O.Cl (stereo not drawn) [Example 18, N^4-(4-phenylbenzyl)A82846B, phenethylamide, HCl salt] | 0.19 | 1 | 1 | ≤ 0.06 | 2 | 0.84 | ≤ 0.06 | 1 | 2 | 2
N^4 -(4-phenoxybenzyl)A82846B, phenethylamide, trifluoroacetate salt [Example 14] | 0.01 | 2 | 1 | ≤ 0.06 | 1 | 2 | ≤ 0.06 | 2 | 2 | 0.5
CNC(CC(C)C)C(=O)NC1C(=O)NC(CC(N)=O)C(=O)NC2C(=O)NC3C(=O)NC(C(=O)NC(C(=O)NCc4ccccc4)c4cc(O)cc(O)c4-c4cc3ccc4O)C(OC3CC(C)(N)C(O)C(C)O3)c3ccc(c(Cl)c3)Oc3cc2cc(c3OC2OC(CO)C(O)C(O)C2OC2CC(C)(N)C(O)C(C)O2)Oc2ccc(cc2Cl)C1O.O=C(O)C(F)(F)F (stereo not drawn) [Example 24, A82846B, benzylamide, trifluoroacetate salt] | 0.38 | ≤ 0.06 | ≤ 0.06 | ≤ 0.06 | ≤ 0.06 | > 128 | ≤ 0.06 | ≤ 0.06 | ≤ 0.06 | ≤ 0.06
CNC(CC(C)C)C(=O)NC1C(=O)NC(CC(N)=O)C(=O)NC2C(=O)NC3C(=O)NC(C(=O)NC(C(=O)NCCCc4ccccc4)c4cc(O)cc(O)c4-c4cc3ccc4O)C(OC3CC(C)(N)C(O)C(C)O3)c3ccc(c(Cl)c3)Oc3cc2cc(c3OC2OC(CO)C(O)C(O)C2OC2CC(C)(N)C(O)C(C)O2)Oc2ccc(cc2Cl)C1O (stereo not drawn) [Example 20, A82846B, (3-phenyl-n-propyl) amide] | 0.22 | 0.125 (≈ 0.0731 µM) | ≤ 0.06 | ≤ 0.06 | ≤ 0.06 | 11 | ≤ 0.06 | ≤ 0.06 | 0.25 (≈ 0.146 µM) | 0.125 (≈ 0.0731 µM)
CNC(CC(C)C)C(=O)NC1C(=O)NC(CC(N)=O)C(=O)NC2C(=O)NC3C(=O)NC(C(=O)NC(C(=O)NCCc4ccccc4)c4cc(O)cc(O)c4-c4cc3ccc4O)C(OC3CC(C)(N)C(O)C(C)O3)c3ccc(c(Cl)c3)Oc3cc2cc(c3OC2OC(CO)C(O)C(O)C2OC2CC(C)(NCc3ccc(-c4ccc(C)cc4)cc3)C(O)C(C)O2)Oc2ccc(cc2Cl)C1O (stereo not drawn) [Example 19, N^4-(4-(4-methylphenyl)benzyl)-A82846B, phenethylamide] | 0.22 | 2 (≈ 1.07 µM) | 2 (≈ 1.07 µM) | ≤ 0.06 | 2 (≈ 1.07 µM) | 1 | ≤ 0.06 | 4 (≈ 2.13 µM) | 4 (≈ 2.13 µM) | 2 (≈ 1.07 µM)

The next lines start with results.

Minimum Inhibitory Concentrations (MICs), Mean Values of 4-6 Isolates, Sensitive [2] | MIC, SA 446 [4] [µg/mL] | MIC, SE270 [5] [µg/mL] | MIC, S PN P1 [6] [µg/mL] | MIC, SA 489 [7] [µg/mL] | Minimum Inhibitory Concentrations (MICs), Mean Values of 4-6 Isolates, Resistant [8] | MIC, S PY 203 [9] [µg/mL] | MIC, SA 447 [10] [µg/mL] | Compound | MIC, SH415 [1] [µg/mL] | MIC, SH105 [3] [µg/mL]
0.072 | 1 (≈ 0.547 µM) | 1 (≈ 0.547 µM) | ≤ 0.06 | 1 (≈ 0.547 µM) | 1.4 | ≤ 0.06 | 1 (≈ 0.547 µM) | CNC(CC(C)C)C(=O)NC1C(=O)NC(CC(N)=O)C(=O)NC2C(=O)NC3C(=O)NC(C(=O)NC(C(=O)NCCCOC)c4cc(O)cc(O)c4-c4cc3ccc4O)C(OC3CC(C)(N)C(O)C(C)O3)c3ccc(c(Cl)c3)Oc3cc2cc(c3OC2OC(CO)C(O)C(O)C2OC2CC(C)(NCc3ccc(-c4ccccc4)cc3)C(O)C(C)O2)Oc2ccc(cc2Cl)C1O (stereo not drawn) [Example 13, N^4-(4-phenylbenzyl)A82846B, (3-methoxypropyl)amide] | 0.5 (≈ 0.273 µM) | 2 (≈ 1.09 µM)
0.054 | 4 (≈ 2.17 µM) | 0.5 (≈ 0.271 µM) | ≤ 0.06 | 2 (≈ 1.09 µM) | 1.2 | ≤ 0.06 | 2 (≈ 1.09 µM) | CNC(CC(C)C)C(=O)NC1C(=O)NC(CC(N)=O)C(=O)NC2C(=O)NC3C(=O)NC(C(=O)NC(C(=O)NCCCN(C)C)c4cc(O)cc(O)c4-c4cc3ccc4O)C(OC3CC(C)(N)C(O)C(C)O3)c3ccc(c(Cl)c3)Oc3cc2cc(c3OC2OC(CO)C(O)C(O)C2OC2CC(C)(NCc3ccc(-c4ccccc4)cc3)C(O)C(C)O2)Oc2ccc(cc2Cl)C1O (stereo not drawn) [Example 21, N^4-(4-phenylbenzyl)A82846B, (3-(dimethylamino)-n-propyl) amide] | 2 (≈ 1.09 µM) | 0.5 (≈ 0.271 µM)
0.11 | 4 | 1 | ≤ 0.06 | 1 | 1 | ≤ 0.06 | 1 | CNC(CC(C)C)C(=O)NC1C(=O)NC(CC(N)=O)C(=O)NC2C(=O)NC3C(=O)NC(C(=O)NC(C(=O)NCc4ccccc4)c4cc(O)cc(O)c4-c4cc3ccc4O)C(OC3CC(C)(N)C(O)C(C)O3)c3ccc(c(Cl)c3)Oc3cc2cc(c3OC2OC(CO)C(O)C(O)C2OC2CC(C)(NCc3ccc(-c4ccccc4)cc3)C(O)C(C)O2)Oc2ccc(cc2Cl)C1O.Cl (stereo not drawn) [Example 11, N^4-(4-phenylbenzyl)A82846B, benzylamide, HCl salt] | 1 | 1
